For eleven molecules, IC50 results are on record in US20180099937A1, “NOVEL ARYL-CYANOGUANIDINE COMPOUNDS” (Bayer Pharma Aktiengesellschaft, priority 2015, published 2018).

Experiment [1] has as its target T1, SMYD2 (Homo sapiens, UniProt Q9NRG4). Description: In Cell Western (ICW) cell-based assay for detection of SMYD2 methylation activity. To be noted: SMYD2 overexpressing KYSE-150 cells, 72 h treatment, p53K370me1 signal normalized to DRAQ5; read-out: IC50 [mol/l] (ICW assay). On the set-up: expressed in transfected cells; host or cells: KYSE-150 (human esophageal carcinoma, DSMZ ACC 375). From the text: 1.2 Cell-Based Assay for Detection of SMYD2 methylation Activity
For the detection of SMYD2 cellular methylation activity an In Cell Western (ICW) assay was established. This assay allows rapid processing of multiple samples for SMYD2 methylation derived immunofluorescence signals, with normalization to cell number via the use of the nucleic acid dye DRAQS. KYSE-150 cells (human esophageal carcinoma cell line; DSMZ-German Collection of Microorganisms and Cell Cultures; No: ACC 375) have been stably transfected with a construct expressing wild-type SMYD2 (NCBI Reference Sequence: NP_064582.2). To detect SMYD2-mediated methylation signals in cells, a customized antibody directed against mono-methylated lysine 370 on protein p53 (p53K370me1) was used. The polyclonal antibody was generated (Eurogentec) against a p53 peptide containing the mono-methylated K370 epitope as described elsewhere (Huang et al., Nature, 2006, 444(7119):629-32).
For conducting the ICW assay 5000 SMYD2 overexpressing KYSE-150 cells/well were seeded in 96-well plates (SIGMA) and cultivated for 24 h. As a control for maximal inhibition of ectopic methylation activity, non-transfected KYSE-150 cells were used. Cells were grown in 49% RPMI 1640 with 49% Ham's F12 media supplemented with 2% heat inactivated fetal calf serum (FCS). For determination of SMYD2 inhibitory activity, cells were treated for 72 h in the presence of compounds or with DMSO. Cells were treated with compounds to be tested at a final concentration range varying from 3.9×10^−8 to 5×10^−6 M. Media was removed and 3.7% (w/v) formaldehyde in PBS was added for 20 min. After two washes with phosphate buffered saline (PBS), 0.25% (v/v) Triton X100 in PBS was added for 15 minutes of permeabilization. After one washing step with PBS, cells were blocked for 1 h with 5% (w/v) non-fat dry milk in PBS. Fixed cells were exposed to primary […] antibody in 5% non-fat dry milk in PBS for 24 h. One row of cells on each plate was not exposed to p53K370me1 antibody and was reserved for background control measurements. The wells were washed three times with PBS, then secondary IR800 conjugated antibody (LI-COR) and DNA-intercalating dye, 5 μM DRAQ5 (LI-COR) were added for 3 h. After 5 washes with PBS, the fluorescence in each well was measured on an Odyssey (LI-COR) scanner at 800 nm (p53K370me1 signal; 764 nm excitation) and 700 nm (DRAQS signal; 683 nm excitation). Fluorescence intensity was quantified and normalized to background and DRAQ5 signals. IC50 values were calculated by fitting the normalized inhibition data to a 4-parameter logistic equation (Minimum, Maximum, IC50, Hill; Y=Max+(Min−Max)/(1+(X/IC50)Hill)) for each tested compound. For IC50 determination C0 (=no inhibition) was defined as the signal measured for DMSO treated controls. Ci (maximal inhibition) was defined as the signal measured for non SMYD2 overexpressing KYSE150 cells.

In experiment [2] the target is T1, SMYD2. The experiment is described as follows: Scintillation Proximity Assay (SPA) for detection of SMYD2 enzymatic inhibition. On the set-up: The SMYD2 full length enzyme was produced in-house by expression (with an N-terminal 6× His tag) in E. coli; 6xHis (N); made in house; host or cells: E. coli. To be noted: SMYD2 full length enzyme, p53 Peptide substrate 1.0 μM, 3H-SAM 60 nM; read-out: IC50 [mol/l] (SPA Assay). It counts as biochemical. Summed up:
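Full-length N-His SMYD2 from E. coli (typically 3 nM) was preincubated with compounds (0.1 nM–20 μM) for 15 min, then reacted 30 min at 22° C with 60 nM 3H-SAM and 1.0 μM biotinylated p53 peptide in Tris pH 9.0. Streptavidin SPA beads read methylation, and IC50 came from a 4-parameter fit.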

T1 sequence (Q9NRG4 whole entry): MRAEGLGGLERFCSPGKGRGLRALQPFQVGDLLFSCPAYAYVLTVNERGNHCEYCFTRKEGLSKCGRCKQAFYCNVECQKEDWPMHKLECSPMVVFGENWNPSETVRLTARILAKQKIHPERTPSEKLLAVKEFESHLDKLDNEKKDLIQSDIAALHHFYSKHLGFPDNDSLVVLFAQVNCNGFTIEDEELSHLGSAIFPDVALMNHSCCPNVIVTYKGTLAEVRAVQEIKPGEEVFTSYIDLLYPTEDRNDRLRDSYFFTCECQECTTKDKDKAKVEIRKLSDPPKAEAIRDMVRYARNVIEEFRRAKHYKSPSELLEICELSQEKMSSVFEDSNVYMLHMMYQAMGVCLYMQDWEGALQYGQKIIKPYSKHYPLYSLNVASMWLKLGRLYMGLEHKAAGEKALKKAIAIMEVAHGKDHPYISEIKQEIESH

Consider `CCN(C(=O)[C@H]1CCCN1)C1CN(/C(=N\C#N)Nc2cc(OC)cc(C(F)(F)F)c2)N=C1c1ccc(Cl)c(Cl)c1` (mixture of isomers) [Example 28, N-[1-{N′-Cyano-N-[3-methoxy-5-(trifluoromethyl)phenyl]carbamimidoyl}-3-(3,4-dichlorophenyl)-4,5-dihydro-1H-pyrazol-4-yl]-N-ethyl-D-prolinamide], for which the IC50 was 77 nM in experiment [1] and 39.5 nM in experiment [2].
In the case of `CCCN(C(=O)[C@H]1CCCN1)C1CN(/C(=N\C#N)Nc2cccc(OC(F)F)c2)N=C1c1ccc(Cl)c(C)c1` (mixture of isomers) [Example 40, N-[3-(4-Chloro-3-methylphenyl)-1-{N′-cyano-N-[3-(difluoromethoxy)phenyl]carbamimidoyl}-4,5-dihydro-1H-pyrazol-4-yl]-N-propyl-D-prolinamide], the IC50 in experiment [1] amounted to 206 nM; in experiment [2] it was 44.3 nM.
As for `CCN(C(=O)[C@H]1CCCN1)C1CN(/C(=N\C#N)Nc2cccc(OC(F)(F)F)c2F)N=C1c1ccc(Cl)c(Cl)c1` (single isomer, unassigned) [Example 21.2, N-[1-{N′-Cyano-N-[2-fluoro-3-(trifluoromethoxy)phenyl]carbamimidoyl}-3-(3,4-dichlorophenyl)-4,5-dihydro-1H-pyrazol-4-yl]-N-ethyl-D-prolinamide], the results for the IC50 in experiment [1] and in experiment [2] were 228 nM and 878 nM, respectively.
As for `N#C/N=C(/Nc1cccc(OC(F)F)c1)N1CC(NC(=O)[C@@H]2CCC[C@@H]2N)C(c2ccc(Cl)c(Cl)c2)=N1` (relative stereo) [Example 41, Rel-(1R,2S)-2-amino-N-[1-{N′-cyano-N-[3-(difluoromethoxy)phenyl]carbamimidoyl}-3-(3,4-dichlorophenyl)-4,5-dihydro-1H-pyrazol-4-yl]cyclopentanecarboxamide], the IC50 in experiment [1] is 571 nM; in experiment [2], 121 nM.
For the molecule `CCN(C(=O)[C@H]1CCN1)C1CN(/C(=N\C#N)Nc2cccc(OC(F)F)c2)N=C1c1ccc(Cl)c(Cl)c1` (mixture of isomers) [Example 2, (2R)-N-[1-{N′-cyano-N-[3-(difluoromethoxy)phenyl]carbamimidoyl}-3-(3,4-dichlorophenyl)-4,5-dihydro-1H-pyrazol-4-yl]-N-ethylazetidine-2-carboxamide], the IC50 was 44.5 nM in experiment [1] and 14.5 nM in experiment [2].
For `CCN(C(=O)[C@H]1CCCN1)C1CN(/C(=N\C#N)Nc2cccc(OC(F)F)c2)N=C1c1ccc(Cl)c(Cl)c1` (mixture of isomers) [Example 1, N-[1-{N′-Cyano-N-[3-(difluoromethoxy)phenyl]carbamimidoyl}-3-(3,4-dichlorophenyl)-4,5-dihydro-1H-pyrazol-4-yl]-N-ethyl-D-prolinamide], the IC50 in experiment [1] was 161 nM; in experiment [2], 24.7 nM.
With `CCN(C(=O)[C@H]1C[C@@H](O)CN1)C1CN(/C(=N\C#N)Nc2cccc(OC(F)F)c2)N=C1c1ccc(Cl)c(Cl)c1` (single isomer, unassigned) [Example 3.1], the IC50 in experiment [1] was 63.4 nM; in experiment [2] it was 19.8 nM.
For `CN(C(=O)[C@H]1C[C@@H](O)CN1)C1CN(/C(=N\C#N)Nc2cccc(OC(F)F)c2)N=C1c1ccc(Cl)c(Cl)c1` (mixture of isomers) [Example 12, (4R)-N-[1-{N′-Cyano-N-[3-(difluoromethoxy)phenyl]carbamimidayl}-3-(3,4-dichlorophenyl)-4,5-dihydro-1H-pyrazol-1-yl]-4-hydroxy-N-methyl-D-prolinamide], the results for the IC50 in experiment [1] and in experiment [2] were 313 nM and 16.8 nM, respectively.
Consider `CCN(C(=O)[C@H]1CCN1)C1CN(/C(=N\C#N)Nc2cccc(OC(F)F)c2)N=C1c1ccc(Cl)c(C)c1` (single isomer, unassigned) [Example 36.1], for which the IC50 turned out to be 14.8 nM in experiment [1] and 10.5 nM in experiment [2].
As to `CCN(C(=O)c1cccc(=O)[nH]1)C1CN(/C(=N\C#N)Nc2cccc(OC(F)(F)F)c2)N=C1c1ccc(Cl)c(Cl)c1` (racemic) [Example 18, rac-N-[1-{N′-Cyano-N-[3-(trifluoromethoxy)phenyl]carbamimidoyl}-3-(3,4-dichlorophenyl)-4,5-dihydro-1H-pyrazol-4-yl]-N-ethyl-6-oxo-1,6-dihydropyridine-2-carboxamide], the IC50 came out at 764 nM in experiment [1] and 1520 nM in experiment [2].
With `CCN(C(=O)[C@H]1CCCN1)C1CN(/C(=N\C#N)Nc2ccc(F)c(OC(F)(F)F)c2)N=C1c1ccc(Cl)c(Cl)c1` (single isomer, unassigned) [Example 22.1, N-[1-{N′-Cyano-N-[4-fluoro-3-(trifluoromethoxy)phenyl]carbamimidoyl}-3-(3,4-dichlorophenyl)-4,5-dihydro-1H-pyrazol-4-yl]-N-ethyl-D-prolinamide], the IC50 in experiment [1] stood at 96.5 nM; in experiment [2] it was 30.5 nM.
